This note sets out measurements from patent US20260159511A1, “SMALL MOLECULE STING ANTAGONISTS” (CURADEV PHARMA PVT. LTD., priority 2021, published 2026).

pIC50: −log10 of the molar value. Like-named read-outs stand apart in the source and are kept apart here.

For this test, the system named is IRF pathway in THP1-Dual™ cells, THP-1 (HAQ). Put plainly: Reporter gene expression assay in THP-1 cells (THP1-Dual, IRF pathway Lucia luciferase reporter, 2′,3′-cGAMP stimulation). The test is classed as cell-based, human. The following applies: read-out: THP-1 (HAQ) Activity (IC50 value range). The procedure:
Reporter Gene Expression Assay in THP-1 Cells
THP1-Dual™ cells (Invivogen) were derived from the human THP-1 monocyte cell line by stable integration of two inducible reporter constructs. As a result, THP1-Dual™ cells allow the simultaneous study of the IRF pathway, by assessing the activity of a secreted luciferase (Lucia) and the NF-κB pathway, by monitoring the activity of secreted SEAP. 5×10^4 THP1-Dual™ cells were seeded in 384-well plates in growth medium and preincubated with novel compounds for 10 minutes followed by stimulation with 5 μM 2′,3′-cGAMP. After 20 hr of stimulation the supernatant was removed and the IRF pathway reporter protein was readily measured in the cell culture supernatant using QUANTI-Luc™ (Invivogen), a luciferase detection reagent on a Spectramax i3X luminometer.

[1] abbreviates: Homo sapiens, THP1-Dual cells preincubated with compound 10 minutes, stimulation with 5 μM 2′,3′-cGAMP for 20 hr, QUANTI-Luc readout of the supernatant.
The mark [2] stands for this setting: THP1-Dual cells preincubated with compound 10 minutes, stimulation with 5 μM 2′,3′-cGAMP for 20 hr, QUANTI-Luc readout of the supernatant.

As to `O=C(Nc1ccc2c(c1)N(Cc1ccccc1)C(=O)CS2)Nc1c[nH]c2cnccc12` [Example 15, 1-(4-benzyl-3-oxo-3,4-dihydro-2H-benzo[b][1,4]thiazin-6-yl)-3-(1H-pyrrolo[2,3-c]pyridin-3-yl)urea], under setting [1], the pIC50 was > 6.00.

As to `CN1C(=O)CSc2ccc(NC(=O)Nc3c[nH]c4ccccc34)cc21` [Example 16, 1-(1H-indol-3-yl)-3-(4-methyl-3-oxo-3,4-dihydro-2H-benzo[b][1,4]thiazin-6-yl)urea], the pIC50 under setting [1] is > 6.00.

`O=C(Nc1ccc2c(c1)N(Cc1ccccc1)C(=O)CS2)Nc1c[nH]c2cccnc12` [Example 17, 1-(4-benzyl-3-oxo-3,4-dihydro-2H-benzo[b][1,4]thiazin-6-yl)-3-(1H-pyrrolo[3,2-b]pyridin-3-yl)urea]: the pIC50 under setting [1] was 5.00 to 6.00.

Take `O=C(Nc1ccc2c(c1)N(Cc1cc(F)cc(F)c1)C(=O)CS2)Nc1c[nH]c2ccccc12` [Example 18, 1-(4-(3,5-difluorobenzyl)-3-oxo-3,4-dihydro-2H-benzo[b][1,4]thiazin-6-yl)-3-(1H-indol-3-yl)urea]: the pIC50 under setting [1] is > 6.00.

On to `O=C(Nc1ccc2c(c1)N(Cc1ccccn1)C(=O)CS2)Nc1c[nH]c2ccccc12` [Example 19, 1-(1H-indol-3-yl)-3-(3-oxo-4-(pyridin-2-ylmethyl)-3,4-dihydro-2H-benzo[b][1,4]thiazin-6-yl)urea], for which the negative logarithm of the IC50 (pIC50) under setting [1] is 5.00 to 6.00.

Turning to `O=C(Nc1ccc2c(c1)N(Cc1ccncc1)C(=O)CS2)Nc1c[nH]c2ccccc12` [Example 20, 1-(1H-indol-3-yl)-3-(3-oxo-4-(pyridin-4-ylmethyl)-3,4-dihydro-2H-benzo[b][1,4]thiazin-6-yl)urea], the pIC50 under setting [1] is 5.00 to 6.00.

As to `NC(=O)c1cccc(CN2C(=O)CSc3ccc(NC(=O)Nc4c[nH]c5ccccc45)cc32)c1` [Example 21, 3-((6-(3-(1H-indol-3-yl)ureido)-3-oxo-2,3-dihydro-4H-benzo[b][1,4]thiazin-4-yl)methyl)benzamide], the pIC50 under setting [1] was 5.00 to 6.00.

In the case of `NC(=O)c1ccccc1CN1C(=O)CSc2ccc(NC(=O)Nc3c[nH]c4ccccc34)cc21` [Example 22, 2-((6-(3-(1H-indol-3-yl)ureido)-3-oxo-2,3-dihydro-4H-benzo[b][1,4]thiazin-4-yl)methyl)benzamide], under setting [1], the pIC50 is 5.00 to 6.00.

As for `NC(=O)c1ccc(CN2C(=O)CSc3ccc(NC(=O)Nc4c[nH]c5ccccc45)cc32)cc1` [Example 23, 4-((6-(3-(1H-indol-3-yl)ureido)-3-oxo-2,3-dihydro-4H-benzo[b][1,4]thiazin-4-yl)methyl)benzamide], the pIC50 under setting [1] is 5.00 to 6.00.

As to `O=C(Nc1ccc2c(c1)N(Cc1cccnc1)C(=O)CS2)Nc1c[nH]c2ccccc12` [Example 24, 1-(1H-indol-3-yl)-3-(3-oxo-4-(pyridin-3-ylmethyl)-3,4-dihydro-2H-benzo[b][1,4]thiazin-6-yl)urea], the pIC50 under setting [1] is 5.00 to 6.00.

For `COc1ccc(F)c(CN2C(=O)CSc3ccc(NC(=O)Nc4c[nH]c5ccccc45)cc32)c1Cl` [Example 25, 1-(4-(2-chloro-6-fluoro-3-methoxybenzyl)-3-oxo-3,4-dihydro-2H-benzo[b][1,4]thiazin-6-yl)-3-(1H-indol-3-yl)urea], under setting [1], the pIC50 was > 6.00.

In the case of `O=C(Nc1ccc2c(c1)N(Cc1noc3ccccc13)C(=O)CS2)Nc1c[nH]c2ccccc12` [Example 26, 1-(4-(benzo[d]isoxazol-3-ylmethyl)-3-oxo-3,4-dihydro-2H-benzo[b][1,4]thiazin-6-yl)-3-(1H-indol-3-yl)urea], the pIC50 under setting [1] was > 6.00.

For `CC1Sc2ccc(NC(=O)Nc3c[nH]c4ccccc34)cc2N(Cc2c(F)cccc2Cl)C1=O` (stereo not shown) [Example 27, 1-(4-(2-chloro-6-fluorobenzyl)-2-methyl-3-oxo-3,4-dihydro-2H-benzo[b][1,4]thiazin-6-yl)-3-(1H-indol-3-yl)urea], the pIC50 under setting [1] is > 6.00.

With `O=C(Nc1ccc2c(c1)N(Cc1c(F)cccc1Cl)C(=O)CS2)Nc1c[nH]c2ccc(Cl)cc12` [Example 28, 1-(5-chloro-1H-indol-3-yl)-3-(4-(2-chloro-6-fluorobenzyl)-3-oxo-3,4-dihydro-2H-benzo[b][1,4]thiazin-6-yl)urea], under setting [1], the pIC50 was 5.00 to 6.00.

In the case of `CC1Sc2ccc(NC(=O)Nc3c[nH]c4ccccc34)cc2N(Cc2ccccc2)C1=O` (stereo not shown) [Example 29, 1-(4-benzyl-2-methyl-3-oxo-3,4-dihydro-2H-benzo[b][1,4]thiazin-6-yl)-3-(1H-indol-3-yl)urea], the pIC50 under setting [1] was > 6.00.

Take `CC1Sc2cc(NC(=O)Nc3c[nH]c4ccccc34)ccc2N(Cc2ccccc2)C1=O` (stereo not shown) [Example 30, 1-(4-benzyl-2-methyl-3-oxo-3,4-dihydro-2H-benzo[b][1,4]thiazin-7-yl)-3-(1H-indol-3-yl)urea]: the pIC50 under setting [1] is > 6.00.

Consider `CC1Sc2ccc(NC(=O)Nc3c[nH]c4ccc(F)cc34)cc2N(Cc2cc(F)cc(F)c2)C1=O` (stereo not shown) [Example 31, 1-(4-(3,5-difluorobenzyl)-2-methyl-3-oxo-3,4-dihydro-2H-benzo[b][1,4]thiazin-6-yl)-3-(5-fluoro-1H-indol-3-yl)urea], for which the pIC50 under setting [1] is > 6.00.

Take `O=C(Nc1ccc2c(c1)N(Cc1cc(F)cc(F)c1)C(=O)CS2)Nc1c[nH]c2ccc(F)cc12` [Example 32, 1-(4-(3,5-difluorobenzyl)-3-oxo-3,4-dihydro-2H-benzo[b][1,4]thiazin-6-yl)-3-(5-fluoro-1H-indol-3-yl)urea]: under setting [1], the pIC50 is > 6.00.

As for `CC1Sc2ccc(NC(=O)Nc3c[nH]c4ccccc34)cc2N(Cc2cc(F)cc(F)c2)C1=O` (stereo not shown) [Example 33, 1-(4-(3,5-difluorobenzyl)-2-methyl-3-oxo-3,4-dihydro-2H-benzo[b][1,4]thiazin-6-yl)-3-(1H-indol-3-yl)urea], the pIC50 under setting [1] is > 6.00.

As to `O=C(Nc1ccc2c(c1)N(Cc1c(F)ccc(O)c1Cl)C(=O)CS2)Nc1c[nH]c2ccccc12` [Example 34, 1-(4-(2-chloro-6-fluoro-3-hydroxybenzyl)-3-oxo-3,4-dihydro-2H-benzo[b][1,4]thiazin-6-yl)-3-(1H-indol-3-yl)urea], under setting [1], the pIC50 was > 6.00.

On to `CC1Sc2ccc(NC(=O)Nc3c[nH]c4ccccc34)cc2N(Cc2ccccc2)C1=O` (stereo not shown) [Example 35, 1-(4-benzyl-2-methyl-3-oxo-3,4-dihydro-2H-benzo[b][1,4]thiazin-6-yl)-3-(1H-indol-3-yl)urea], for which, under setting [2], the pIC50 was > 6.00.

Regarding `CC1Sc2ccc(NC(=O)Nc3c[nH]c4ccccc34)cc2N(Cc2ccccc2)C1=O` (stereo not shown) [Example 36, 1-(4-benzyl-2-methyl-3-oxo-3,4-dihydro-2H-benzo[b][1,4]thiazin-6-yl)-3-(1H-indol-3-yl)urea], under setting [2], the pIC50 was > 6.00.

For the molecule `N#Cc1ccc2[nH]cc(NC(=O)Nc3ccc4c(c3)N(Cc3ccccc3)C(=O)CS4)c2c1` [Example 37, 1-(4-benzyl-3-oxo-3,4-dihydro-2H-benzo[b][1,4]thiazin-6-yl)-3-(5-cyano-1H-indol-3-yl)urea], the pIC50 under setting [1] was > 6.00.

As for `O=C(Nc1ccc2c(c1)N(Cc1ccccc1)C(=O)CS2)Nc1c[nH]c2ccc(-c3ccn[nH]3)cc12` [Example 38, 1-(5-(1H-Pyrazol-5-yl)-1H-indol-3-yl)-3-(4-benzyl-3-oxo-3,4-dihydro-2H-benzo[b][1,4]thiazin-6-yl)urea], the pIC50 (Homo sapiens) is 5.00 to 6.00.

As for `O=C(Nc1ccc2c(c1)N(Cc1ccccc1)C(=O)CS2)Nc1c[nH]c2ccc(-c3cnco3)cc12` [Example 39, 1-(4-benzyl-3-oxo-3,4-dihydro-2H-benzo[b][1,4]thiazin-6-yl)-3-(5-(oxazol-5-yl)-1H-indol-3-yl)urea], under setting [1], the pIC50 is > 6.00.

Regarding `O=C(Nc1ccc2c(c1)N(Cc1ccccc1)C(=O)CS2)Nc1c[nH]c2ccc(-c3cc(F)cc(F)c3)cc12` [Example 40, 1-(4-benzyl-3-oxo-3,4-dihydro-2H-benzo[b][1,4]thiazin-6-yl)-3-(5-(3,5-difluorophenyl)-1H-indol-3-yl)urea], the pIC50 under setting [1] was > 6.00.

As for `Cc1ncc(-c2ccc3[nH]cc(NC(=O)Nc4ccc5c(c4)N(Cc4ccccc4)C(=O)CS5)c3c2)o1` [Example 41, 1-(4-benzyl-3-oxo-3,4-dihydro-2H-benzo[b][1,4]thiazin-6-yl)-3-(5-(2-methyloxazol-5-yl)-1H-indol-3-yl)urea], the pIC50 under setting [1] is 5.00 to 6.00.

For the molecule `O=C(Nc1ccc2c(c1)N(Cc1ccccc1)C(=O)CS2)Nc1c[nH]c2ccc(-c3cnsc3)cc12` [Example 42, 1-(4-benzyl-3-oxo-3,4-dihydro-2H-benzo[b][1,4]thiazin-6-yl)-3-(5-(isothiazol-4-yl)-1H-indol-3-yl)urea], the pIC50 under setting [1] is > 6.00.

For `O=C(Nc1ccc2c(c1)N(Cc1ccccc1)C(=O)CS2)Nc1c[nH]c2ccc(-c3cccc(CO)c3)cc12` [Example 43, 1-(4-benzyl-3-oxo-3,4-dihydro-2H-benzo[b][1,4]thiazin-6-yl)-3-(5-(3-(hydroxymethyl)phenyl)-1H-indol-3-yl)urea], the pIC50 under setting [1] was > 6.00.

For `O=C(Nc1ccc2c(c1)N(Cc1ccccc1)C(=O)CS2)Nc1c[nH]c2ccc(-c3cn[nH]c3)cc12` [Example 44, 1-(5-(1H-pyrazol-4-yl)-1H-indol-3-yl)-3-(4-benzyl-3-oxo-3,4-dihydro-2H-benzo[b][1,4]thiazin-6-yl)urea], the pIC50 under setting [1] was 5.00 to 6.00.

Regarding `N#Cc1cccc(-c2ccc3[nH]cc(NC(=O)Nc4ccc5c(c4)N(Cc4ccccc4)C(=O)CS5)c3c2)c1` [Example 45, 1-(4-benzyl-3-oxo-3,4-dihydro-2H-benzo[b][1,4]thiazin-6-yl)-3-(5-(3-cyanophenyl)-1H-indol-3-yl)urea], under setting [1], the pIC50 was > 6.00.
